The results in this text go back to patent publication US20160331662A1, “Compositions that Inhibit and Prevent the Formation of Dental Caries and Methods of Using the Same” (priority 2014, published 2016).

For experiment [1], the target named is T1, iSRCR1 (Homo sapiens, UniProt Q9UGM3).
T1 construct: strongly proves that a single SRCR domain contains the adherence sites for AgI/II and SspB; made in house; host or cells: Drosophila expression system
Put plainly: SPR binding of analytes to immobilized iSRCR1 (CM5 chip, 1:1 Langmuir). As to conditions: substance alone over CM5 chip. How it is done: (§1) Real time binding analyses of the SRCR domains with AgI/II fragments were carried out using the BIAcore 2000 system. […] Self association of iSRCR1 or iSRCR123 (at 2 μM) were also determined in a similar manner as described above. Finally to determine the effect of calcium SPR analysis was carried out by dialyzing the analytes and ligands in binding buffer devoid of CaCl2.
(§2) In addition, the SRCR holding two distinct surfaces compounded the elucidation of individual kinetics, and presently there are no modeling protocols available to determine the individual affinities for such a system, therefore for simplicity we have utilized a single site 1:1 Langmuir model. All experiments were carried out in triplicates and the kinetics of the association (KA) and dissociation (KD) rate constants were deduced using the 1:1 Langmuir Kinetic model on the BIA-Evaluation software. The concentration (C in μM) of analyte (FL^AgI/II or FL^SspB at 2 μM) that adhered to the immobilized ligand (iSRCR1, iSRCR123) within the flow cell was calculated using the formula C=(RU/MW)×(1/V), where RU is resonance unit (1 RU=1 pg of bound protein), MW is molecular weight of analyte and V is volume of flow cell (1.2×10^−10 L).

Experiment [2] relates to adhesion of AgI/II of S. mutans to iSRCR123. Put plainly: Adherence/inhibition SPR: AgI/II fragments on immobilized iSRCR123. The class given is binding. How it is done: (§3) Carbohydrates Galβ1-3-GalNac and Mannose (identified from glycan profile analysis) at different concentrations (0.010, 0.050, 0.1, 0.5 and 1 mM) were incubated with 2 μM of each FL, A3VP1 and C123 of AgI/II and SspB and the interaction with immobilized iSRCR1 and iSRCR123 with running buffer containing 20 mM HEPES, 150 mM NaCl and 2.5 mM CaCl2, pH 7.4 at 25° C. and with flow rate of 20 μl/min was analyzed. Direct adherence of these carbohydrates alone served as the control and all calculations were carried out using the BIAevaluation software. Using the same protocol above at varying concentrations the effect of SRCRP2 peptide on the adherence inhibition was assessed.

For experiment [3], the system named is rcnM (collagen binding protein) adherence to immobilized salivary agglutinin. Description: SPR inhibition of SAG adherence of FL surface protein (Example 2). As to conditions: 2 mM. How it is done:
(§4) Inhibition of SAG adherence to AgI/II, SspB, Pas, along with glucan binding protein C (GbpC) and collagen binding protein (rcnM) by Galβ1-3GalNac (core-1) was determined as is described in Example 1 and as described below.
(§5) Recombinant full length (FL) constructs of surface proteins (homologs of AgI/II) AgI/II, SspB, Pas, along with GbpC (Glucan binding protein C) and rcnM (collagen binding protein) were incubated with various concentrations (0.010 mM to 2 mM) of Galβ1-3GalNac at room temperature and their binding interaction with immobilized salivary agglutinin on a CM5 sensor chip was determined.

Experiment [4] has as its target T2, iSRCR123 (Homo sapiens, UniProt Q9UGM3).
T2 construct: multiple SRCR domains have better adherence capability compared to that of a single SRCR domain; made in house; host or cells: Drosophila expression system
Description: SPR binding of analytes to immobilized iSRCR123 (CM5 chip, 1:1 Langmuir). As to conditions: substance alone over CM5 chip. How it is done:
as §1, §2

Experiment [5] addresses T3, AgI/II adherence to immobilized salivary agglutinin (Streptococcus mutans serotype c, UniProt P23504).
T3 construct: Recombinant full length (FL) constructs of surface proteins (homologs of AgI/II) AgI/II, SspB, Pas; made in house
Description: SPR inhibition of SAG adherence of FL surface protein (Example 2). The class given is binding, S. mutans. As to conditions: 2 mM. Here is the method: as §4, §5

The target of experiment [6] is T4, SspB adherence to immobilized salivary agglutinin (Streptococcus gordonii, UniProt A8AUS1).
T4 construct: (39-1433) (NotI) Reverse; made in house; host or cells: pET23d vector
Described as above. The class given is binding, S. gordonii. As to conditions: 2 mM. How it is done:
as §4, §5

The subject of experiment [7] is adhesion of SspB of S. gordonii to iSRCR123. Description: Adherence/inhibition SPR: SspB fragments on immobilized iSRCR123. The experiment is classed as binding. Here is the method:
as §3

For experiment [8], the system named is adhesion of AgI/II of S. mutans to iSRCR1. Description: Adherence/inhibition SPR: AgI/II fragments on immobilized iSRCR1. The experiment is classed as binding. How it is done:
as §3

For experiment [9], the system named is GbpC (Glucan binding protein C) adherence to immobilized salivary agglutinin. Description: SPR inhibition of SAG adherence of FL surface protein (Example 2). On the set-up: species or system S. mutans. As to conditions: 2 mM. How it is done:
as §4, §5

Experiment [10] deals with adhesion of SspB of S. gordonii to iSRCR1. The class given is binding. As to conditions: lower concentrations 0.010 mM-0.500 mM. Here is the method: as §3
The target in experiment [11] is T5, adhesion of SspB of S. gordonii to iSRCR1 (Streptococcus gordonii, UniProt A8AUS1).
T5 construct: made in house; host or cells: pET23d vector
The experiment is classed as binding. As to conditions: 2 μM protein. Here is the method:
as §3

Experiment [12] deals with T6, Pas adherence to immobilized salivary agglutinin (Streptococcus intermedius, UniProt Q9KW51).
T6 construct: Recombinant full length (FL) constructs of surface proteins (homologs of AgI/II) AgI/II, SspB, Pas; made in house
Put plainly: SPR inhibition of SAG adherence of FL surface protein (Example 2). The experiment is classed as binding, S. intermedius. As to conditions: 2 mM. How it is done: as §4, §5

In experiment [13] the target is T7, SAG (Homo sapiens, UniProt Q9UGM3).
T7 construct: from tissue; host or cells: saliva (purified SAG, gift)
Description: SPR binding of analytes to immobilized SAG. As to conditions: 2 mM, control experiment. Here is the method: as §1, §2

For experiment [14], the target named is SspB of S. gordonii (Streptococcus gordonii, UniProt A8AUS1). As to conditions: FAM-labelled peptide.
For experiment [15], the target named is T8, AgI/II of S. mutans (Streptococcus mutans serotype c, UniProt P23504).
T8 construct: Recombinant full length (FL) constructs of surface proteins (homologs of AgI/II) AgI/II, SspB, Pas; made in house
Put plainly: ELISA binding of fluorescent tagged SRCRP2 peptide. As to conditions: FAM-labelled peptide.

Experiment [16] concerns S. gordonii DL1. Description: Aggregation assay (OD700 over 60 min). The class given is cell-based. How it is done:
(§6) Aggregation assays were performed as described earlier with slight modifications. Briefly, S. mutans UA159 and S. gordonii DL1 cells were grown in TSY broth media overnight at 37° C. in the presence of 5% CO2. The bacteria were centrifuged at 5000×g and washed with a buffer containing 20 mM HEPES pH 7.4, 150 mM NaCl and re-suspended to an approximate OD700 of 1. The bacterial suspension (900 μl) was mixed with 100 μl of SAG or iSRCR1 (10 μM) or iSRCR123 ([…]) or commercially synthesized (Think Peptides, Inc) SRCRP2 peptide with fluorescein amidite (FAM) at the carboxyl end ([…]-[FAM]) (SEQ ID NO:9, at both 400 μg/ml and 1 mg/ml) in the presence of 6 mM CaCl2 and aggregation was measured by recording OD700over 60 min at 5 min intervals, where the buffer alone was used as control. All experiments were carried out at least five times, and the results were analyzed with One-way ANOVA. Post-hoc testing where *, P<0.05 was considered statistically significant and results were presented as the percentage of cells aggregated.

For experiment [17], the system named is S. mutans UA159. Description: Aggregation assay (OD700 over 60 min). The class given is cell-based. How it is done: as §6
The mark [18] stands for this setting: lower concentrations 0.010 mM-0.500 mM.
The mark [19] stands for this setting: peptide at lower concentration (400 μg/ml).

T1 sequence (Q9UGM3 102-202 limits assumed): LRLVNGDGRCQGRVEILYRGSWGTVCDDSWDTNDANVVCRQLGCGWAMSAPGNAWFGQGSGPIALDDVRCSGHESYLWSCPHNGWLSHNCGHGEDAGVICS
T2 sequence (Q9UGM3 102-463 limits assumed): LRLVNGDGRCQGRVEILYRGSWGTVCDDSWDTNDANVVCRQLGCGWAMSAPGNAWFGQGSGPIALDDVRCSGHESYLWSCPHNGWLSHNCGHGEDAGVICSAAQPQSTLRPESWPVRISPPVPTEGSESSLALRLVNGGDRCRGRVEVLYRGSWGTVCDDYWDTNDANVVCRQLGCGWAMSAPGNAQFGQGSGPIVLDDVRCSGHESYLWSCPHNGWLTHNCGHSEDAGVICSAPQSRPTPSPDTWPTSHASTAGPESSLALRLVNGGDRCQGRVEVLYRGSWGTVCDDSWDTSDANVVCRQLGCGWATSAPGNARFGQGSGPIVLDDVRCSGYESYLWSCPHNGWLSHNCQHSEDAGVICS
T6 sequence (Q9KW51 39-1310): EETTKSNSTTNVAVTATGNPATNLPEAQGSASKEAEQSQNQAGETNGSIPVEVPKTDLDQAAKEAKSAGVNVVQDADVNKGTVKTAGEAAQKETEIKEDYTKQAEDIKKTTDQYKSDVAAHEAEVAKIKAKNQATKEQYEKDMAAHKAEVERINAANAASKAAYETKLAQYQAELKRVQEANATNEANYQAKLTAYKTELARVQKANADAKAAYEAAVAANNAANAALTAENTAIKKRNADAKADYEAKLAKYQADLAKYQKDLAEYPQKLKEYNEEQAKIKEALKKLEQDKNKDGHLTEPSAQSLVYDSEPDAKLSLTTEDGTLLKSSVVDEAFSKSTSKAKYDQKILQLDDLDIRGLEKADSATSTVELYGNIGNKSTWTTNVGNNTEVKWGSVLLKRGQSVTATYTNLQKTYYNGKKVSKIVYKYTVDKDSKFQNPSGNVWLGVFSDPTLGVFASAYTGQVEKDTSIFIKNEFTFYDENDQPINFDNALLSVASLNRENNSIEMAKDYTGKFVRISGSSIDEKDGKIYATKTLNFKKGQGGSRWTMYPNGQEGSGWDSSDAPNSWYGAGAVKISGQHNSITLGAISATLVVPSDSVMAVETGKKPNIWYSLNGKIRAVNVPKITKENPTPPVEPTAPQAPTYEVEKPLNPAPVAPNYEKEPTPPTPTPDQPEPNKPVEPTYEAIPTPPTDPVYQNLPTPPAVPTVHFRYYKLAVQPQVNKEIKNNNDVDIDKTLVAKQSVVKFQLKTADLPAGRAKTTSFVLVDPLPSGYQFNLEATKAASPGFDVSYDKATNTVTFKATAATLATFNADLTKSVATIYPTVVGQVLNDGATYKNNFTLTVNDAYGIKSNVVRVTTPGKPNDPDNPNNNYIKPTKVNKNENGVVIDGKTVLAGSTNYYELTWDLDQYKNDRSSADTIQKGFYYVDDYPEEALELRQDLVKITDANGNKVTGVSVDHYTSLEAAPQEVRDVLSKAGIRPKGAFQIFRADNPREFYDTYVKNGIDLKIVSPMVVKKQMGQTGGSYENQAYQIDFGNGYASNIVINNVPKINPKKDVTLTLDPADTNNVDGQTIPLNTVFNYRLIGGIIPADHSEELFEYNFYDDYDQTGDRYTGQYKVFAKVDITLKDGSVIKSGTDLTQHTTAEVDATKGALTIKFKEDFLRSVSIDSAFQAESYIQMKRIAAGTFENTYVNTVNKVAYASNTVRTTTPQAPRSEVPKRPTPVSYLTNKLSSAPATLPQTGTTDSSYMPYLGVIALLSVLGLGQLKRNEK
T4 sequence (A8AUS1 39-1433): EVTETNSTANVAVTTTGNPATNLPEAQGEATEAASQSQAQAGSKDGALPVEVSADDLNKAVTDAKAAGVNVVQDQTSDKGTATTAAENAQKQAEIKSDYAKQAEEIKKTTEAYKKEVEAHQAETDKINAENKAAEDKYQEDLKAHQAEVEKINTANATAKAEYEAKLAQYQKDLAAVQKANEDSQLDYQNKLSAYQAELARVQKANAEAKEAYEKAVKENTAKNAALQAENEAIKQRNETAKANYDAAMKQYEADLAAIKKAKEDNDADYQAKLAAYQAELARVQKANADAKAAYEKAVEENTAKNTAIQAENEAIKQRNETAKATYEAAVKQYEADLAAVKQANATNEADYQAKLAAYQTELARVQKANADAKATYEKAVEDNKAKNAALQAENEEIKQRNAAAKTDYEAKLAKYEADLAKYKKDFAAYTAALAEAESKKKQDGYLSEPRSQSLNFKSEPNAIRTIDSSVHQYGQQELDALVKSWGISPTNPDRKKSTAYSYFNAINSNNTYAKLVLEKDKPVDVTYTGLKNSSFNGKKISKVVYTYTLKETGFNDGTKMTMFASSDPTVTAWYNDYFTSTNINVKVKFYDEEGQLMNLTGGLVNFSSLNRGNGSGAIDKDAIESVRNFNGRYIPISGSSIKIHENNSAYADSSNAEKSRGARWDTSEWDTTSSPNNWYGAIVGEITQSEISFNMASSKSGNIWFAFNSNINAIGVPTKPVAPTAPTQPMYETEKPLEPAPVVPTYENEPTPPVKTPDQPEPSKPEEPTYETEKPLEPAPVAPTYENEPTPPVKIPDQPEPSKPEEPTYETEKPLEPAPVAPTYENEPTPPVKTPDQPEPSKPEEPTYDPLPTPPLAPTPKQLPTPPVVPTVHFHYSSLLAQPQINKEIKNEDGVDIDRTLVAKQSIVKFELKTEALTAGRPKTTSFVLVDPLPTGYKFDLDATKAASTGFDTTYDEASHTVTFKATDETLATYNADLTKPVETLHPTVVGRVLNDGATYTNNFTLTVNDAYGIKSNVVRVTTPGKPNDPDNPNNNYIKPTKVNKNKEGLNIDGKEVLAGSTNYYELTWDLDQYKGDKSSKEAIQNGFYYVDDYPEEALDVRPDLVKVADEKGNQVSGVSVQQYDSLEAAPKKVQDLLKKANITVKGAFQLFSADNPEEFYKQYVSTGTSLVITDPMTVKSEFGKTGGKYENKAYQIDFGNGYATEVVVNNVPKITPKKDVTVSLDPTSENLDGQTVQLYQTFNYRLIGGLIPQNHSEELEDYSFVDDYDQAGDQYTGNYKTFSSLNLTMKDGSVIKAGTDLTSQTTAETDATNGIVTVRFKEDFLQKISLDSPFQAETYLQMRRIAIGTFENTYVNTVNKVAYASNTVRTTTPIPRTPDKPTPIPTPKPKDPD
Chain of SspB of S. gordonii (A8AUS1 39-1433): as above

As to `CC(=O)N[C@H]1C(O)O[C@H](CO)[C@H](O)[C@@H]1O[C@@H]1O[C@H](CO)[C@H](O)[C@H](O)[C@H]1O` (some centres unmarked) [Galβ1-3-GalNac], the “direct binding to immobilized iSRCR1 (in words)” value in experiment [1] is on record as “did not have any interactions”. Besides, in [2] (1.0 mM, 2 μM protein), the “inhibition of adhesion of A3VP1^AgI/II to iSRCR123” value was 75%, the “inhibition of adhesion of C123^AgI/II to iSRCR123” value is 47% and the “inhibition of adhesion of FL^AgI/II to iSRCR123” value was found to be 73%. In experiment [2] (setting [18]), the “effect on adhesion of all AgI/II fragments with iSRCR123 (in words)” value is on record as “enhanced the adhesion”. The “inhibition of SAG adherence of rcnM” value in experiment [3] came out at 69%. For the same compound, the “direct binding to immobilized iSRCR123 (in words)” value in [4] is “did not have any interactions”. In experiment [5], the “inhibition of SAG adherence of AgI/II” value worked out at 94%. In addition, the “inhibition of SAG adherence of SspB” value in experiment [6] came to 65%. For the same compound, in experiment [7] (1.0 mM, 2 μM protein), the “inhibition of adhesion of A3VP1^SspB to iSRCR123” value worked out at 60%, the “inhibition of adhesion of C123^SspB to iSRCR123” value stood at 40% and the “inhibition of adhesion of FL^SspB to iSRCR123” value is 37%. For the same compound, the “effect on adhesion of all SspB fragments with iSRCR123 (in words)” value in [7] (setting [18]) is reported as “enhanced the adhesion”. Besides, in experiment [8] (1.0 mM, 2 μM protein), the “inhibition of adhesion of A3VP1^AgI/II to iSRCR1” value was found to be 79%, the “inhibition of adhesion of C123^AgI/II to iSRCR1” value is given as 73% and the “inhibition of adhesion of FL^AgI/II to iSRCR1” value is given as 85%. The “effect on adhesion of all AgI/II fragments with iSRCR1 (in words)” value in experiment [8] (setting [18]) is “enhanced the adhesion”. Also, the “inhibition of SAG adherence of GBPC” value in experiment [9] is reported as 72%. In addition, in experiment [10], the “effect on adhesion of all SspB fragments with iSRCR1 (in words)” value is given as “enhanced the adhesion”. In addition, in [11] (1.0 mM), the “inhibition of adhesion of A3VP1^SspB to iSRCR1” value was found to be 61%, the “inhibition of adhesion of C123^SspB to iSRCR1” value came to 32% and the “inhibition of adhesion of FL^SspB to iSRCR1” value was 64%. Moreover, the “inhibition of SAG adherence of Pas” value in [12] came to 28%. In addition, in experiment [13], the “direct adherence to SAG (in words)” value is given as “did not show direct adherence”.
On to “QGRVEVLYRGSWGTVC [SRCRP2 peptide, reference compound]”, for which the “direct binding to immobilized iSRCR1 (in words)” value in experiment [1] is recorded as “did not show any binding”. In addition, in experiment [2] (0.005 mM peptide, 2 μM protein), the “change in adherence of C123^AgI/II to iSRCR123” value is recorded as 7%, the “improvement of adherence of A3VP1^AgI/II to iSRCR123” value turned out to be 16% and the “improvement of adherence of FL^AgI/II to iSRCR123” value amounted to 8%. Also, the “direct binding to immobilized iSRCR123 (in words)” value in experiment [4] is “did not show any binding”. Also, the “adherence to SspB and its subfragments by ELISA (in words)” value in experiment [14] is “adheres well”. Also, in [7] (0.005 mM peptide, 2 μM protein), the “change in adherence of A3VP1^SspB to iSRCR123” value came to 3%, the “change in adherence of C123^SspB to iSRCR123” value amounted to 5% and the “improvement of adherence of FL^SspB to iSRCR123” value is on record as 91%. Besides, in experiment [8] (0.005 mM peptide, 2 μM protein), the “change in adherence of C123^AgI/II to iSRCR1” value was 2.3%, the “improvement of adherence of A3VP1^AgI/II to iSRCR1” value is 13% and the “improvement of adherence of FL^AgI/II to iSRCR1” value is listed as 8%. In addition, in experiment [15], the “adherence to AgI/II and its subfragments by ELISA (in words)” value was “adheres well”. Also, the “percentage of cells aggregated” value in [16] (peptide 1 mg/ml) is 12%. The “percentage of cells aggregated” value in experiment [16] (setting [19]) is reported as 11%. In addition, in experiment [17] (peptide 1 mg/ml), the “percentage of cells aggregated” value came out at 18%. Also, the “percentage of cells aggregated” value in [17] (setting [19]) stood at 12%. In [11] (0.005 mM peptide), the “change in adherence of A3VP1^SspB to iSRCR1” value is listed as 3%, the “change in adherence of C123^SspB to iSRCR1” value is recorded as 4% and the “improvement of adherence of FL^SspB to iSRCR1” value was 97%.
